Data taken from patent US20220281848A1, “PYRAZOLE-SUBSTITUTED PYRROLIDINONES AS HERBICIDES” (FMC Corporation, priority 2019, published 2022).

Test system: plants
Assay: Test D pre-emergence, other plants of Tables D1 and D3
Assay type: in vivo
Details: for damage to plant, ALOMY / damage to plant, AVEFA / damage to plant, BEAVA / damage to plant, BROTE / damage to plant, BRSNN / damage to plant, HORVW / damage to plant, SINAR: pre-emergence, 100=total damage, 0=no damage; for ABUTH damage to plant (100=total damage; 0=no damage) / AMARE damage to plant (100=total damage; 0=no damage) / DIGSA damage to plant (100=total damage; 0=no damage) / ECHCG damage to plant (100=total damage; 0=no damage) / ORYSA damage to plant (100=total damage; 0=no damage) / PANMI damage to plant (100=total damage; 0=no damage) / SETFA damage to plant (100=total damage; 0=no damage): preemergent
Experimental: A formulation containing 50 g/L of the test chemical was prepared by dissolving the active ingredient in a mixture of organic solvents and emulsifier, details of which are provided in the table. This formulation was then mixed with a small, variable amount of acetone to aid dissolution, before addition of a 0.2% v/v aqueous solution of an adjuvant, as the aqueous diluent, to form an aqueous spray solution which contains a predetermined concentration of the active ingredient.
This aqueous spray solution was then sprayed onto plants including maize and wheat that had been seed treated with a herbicide safener, after one day's cultivation (for pre-emergence) or after about 12 days' cultivation (for post-emergence). The plants were grown from seeds sown in standard soil, placed in a glasshouse under controlled conditions (at 24/18° C. or 20/16° C., day/night; 16 h light; 65% humidity). After spray application the plants were then grown in a glasshouse under the same conditions and watered twice daily. After 15 d for post-emergence and 20 DAA for pre-emergence the test was evaluated (100=total damage to plant; 0=no damage to plant).

CN1CC(c2cnn(C)c2C(F)(F)F)C(C(=O)Nc2cccc(F)c2F)C1=O (racemic) [Compound 25]
damage to plant, ALOMY (rate 15, 20 DAA): 0
damage to plant, AVEFA (rate 15, 20 DAA): 0
damage to plant, BEAVA (rate 15, 20 DAA): 0
damage to plant, BROTE (rate 15, 20 DAA): 0
damage to plant, BRSNN (rate 15, 20 DAA): 0
damage to plant, HORVW (rate 15, 20 DAA): 0
damage to plant, SINAR (rate 15, 20 DAA): 0
damage to plant, ALOMY (rate 30, 20 DAA): 0
damage to plant, AVEFA (rate 30, 20 DAA): 0
damage to plant, BEAVA (rate 30, 20 DAA): 0
damage to plant, BROTE (rate 30, 20 DAA): 0
damage to plant, BRSNN (rate 30, 20 DAA): 0
damage to plant, HORVW (rate 30, 20 DAA): 0
damage to plant, SINAR (rate 30, 20 DAA): 0
damage to plant, ALOMY (rate 60, 20 DAA): 0
damage to plant, AVEFA (rate 60, 20 DAA): 0
damage to plant, BEAVA (rate 60, 20 DAA): 0
damage to plant, BROTE (rate 60, 20 DAA): 0
damage to plant, BRSNN (rate 60, 20 DAA): 0
damage to plant, HORVW (rate 60, 20 DAA): 0
damage to plant, SINAR (rate 60, 20 DAA): 0
damage to plant, ALOMY (rate 130, 20 DAA): 0
damage to plant, AVEFA (rate 130, 20 DAA): 0
damage to plant, BEAVA (rate 130, 20 DAA): 0
damage to plant, BROTE (rate 130, 20 DAA): 0
damage to plant, BRSNN (rate 130, 20 DAA): 0
damage to plant, HORVW (rate 130, 20 DAA): 0
damage to plant, SINAR (rate 130, 20 DAA): 0
damage to plant, ALOMY (rate 250, 20 DAA): 0
damage to plant, AVEFA (rate 250, 20 DAA): 0
damage to plant, BEAVA (rate 250, 20 DAA): 0
damage to plant, BROTE (rate 250, 20 DAA): 0
damage to plant, BRSNN (rate 250, 20 DAA): 0
damage to plant, HORVW (rate 250, 20 DAA): 0
damage to plant, SINAR (rate 250, 20 DAA): 0
damage to plant, ALOMY (rate 500, 20 DAA): 0
damage to plant, AVEFA (rate 500, 20 DAA): 0
damage to plant, BEAVA (rate 500, 20 DAA): 0
damage to plant, BROTE (rate 500, 20 DAA): 10
damage to plant, BRSNN (rate 500, 20 DAA): 20
damage to plant, HORVW (rate 500, 20 DAA): 0
damage to plant, SINAR (rate 500, 20 DAA): 0
ABUTH damage to plant (100=total damage; 0=no damage) (Rates 15, 20 DAA): 0
AMARE damage to plant (100=total damage; 0=no damage) (Rates 15, 20 DAA): 0
DIGSA damage to plant (100=total damage; 0=no damage) (Rates 15, 20 DAA): 0
ECHCG damage to plant (100=total damage; 0=no damage) (Rates 15, 20 DAA): 0
ORYSA damage to plant (100=total damage; 0=no damage) (Rates 15, 20 DAA): 0
PANMI damage to plant (100=total damage; 0=no damage) (Rates 15, 20 DAA): 0
SETFA damage to plant (100=total damage; 0=no damage) (Rates 15, 20 DAA): 0
ABUTH damage to plant (100=total damage; 0=no damage) (Rates 30, 20 DAA): 0
AMARE damage to plant (100=total damage; 0=no damage) (Rates 30, 20 DAA): 0
DIGSA damage to plant (100=total damage; 0=no damage) (Rates 30, 20 DAA): 60
ECHCG damage to plant (100=total damage; 0=no damage) (Rates 30, 20 DAA): 20
ORYSA damage to plant (100=total damage; 0=no damage) (Rates 30, 20 DAA): 0
PANMI damage to plant (100=total damage; 0=no damage) (Rates 30, 20 DAA): 0
SETFA damage to plant (100=total damage; 0=no damage) (Rates 30, 20 DAA): 0
ABUTH damage to plant (100=total damage; 0=no damage) (Rates 60, 20 DAA): 0
AMARE damage to plant (100=total damage; 0=no damage) (Rates 60, 20 DAA): 0
DIGSA damage to plant (100=total damage; 0=no damage) (Rates 60, 20 DAA): 80
ECHCG damage to plant (100=total damage; 0=no damage) (Rates 60, 20 DAA): 60
ORYSA damage to plant (100=total damage; 0=no damage) (Rates 60, 20 DAA): 0
PANMI damage to plant (100=total damage; 0=no damage) (Rates 60, 20 DAA): 0
SETFA damage to plant (100=total damage; 0=no damage) (Rates 60, 20 DAA): 10
ABUTH damage to plant (100=total damage; 0=no damage) (Rates 130, 20 DAA): 0
AMARE damage to plant (100=total damage; 0=no damage) (Rates 130, 20 DAA): 0
DIGSA damage to plant (100=total damage; 0=no damage) (Rates 130, 20 DAA): 90
ECHCG damage to plant (100=total damage; 0=no damage) (Rates 130, 20 DAA): 90
ORYSA damage to plant (100=total damage; 0=no damage) (Rates 130, 20 DAA): 0
PANMI damage to plant (100=total damage; 0=no damage) (Rates 130, 20 DAA): 0
SETFA damage to plant (100=total damage; 0=no damage) (Rates 130, 20 DAA): 60
ABUTH damage to plant (100=total damage; 0=no damage) (Rates 250, 20 DAA): 0
AMARE damage to plant (100=total damage; 0=no damage) (Rates 250, 20 DAA): 0
DIGSA damage to plant (100=total damage; 0=no damage) (Rates 250, 20 DAA): 90
ECHCG damage to plant (100=total damage; 0=no damage) (Rates 250, 20 DAA): 90
ORYSA damage to plant (100=total damage; 0=no damage) (Rates 250, 20 DAA): 0
PANMI damage to plant (100=total damage; 0=no damage) (Rates 250, 20 DAA): 0
SETFA damage to plant (100=total damage; 0=no damage) (Rates 250, 20 DAA): 60
ABUTH damage to plant (100=total damage; 0=no damage) (Rates 500, 20 DAA): 0
AMARE damage to plant (100=total damage; 0=no damage) (Rates 500, 20 DAA): 0
DIGSA damage to plant (100=total damage; 0=no damage) (Rates 500, 20 DAA): 90
ECHCG damage to plant (100=total damage; 0=no damage) (Rates 500, 20 DAA): 90
ORYSA damage to plant (100=total damage; 0=no damage) (Rates 500, 20 DAA): 0
PANMI damage to plant (100=total damage; 0=no damage) (Rates 500, 20 DAA): 0
SETFA damage to plant (100=total damage; 0=no damage) (Rates 500, 20 DAA): 90
